Here are results for nine molecules from paper PMC7647111, “Antileishmanial compounds from Connarus suberosus: Metabolomics, isolation and mechanism of action” (PLoS ONE, 2020).

Converted amounts (≈) assume the structure as drawn. “And” between values parts separate entries of the source, which are not always exact repeats. Identical values can stand only once. Like-named read-outs stand apart in the source and are kept apart here. A value given as a limit tells only on which side of the number the result lay.

Data set [1] has as its system L. amazonensis axenic amastigotes. The arrangement: method as in PMID 18849135. The note with it: cited from earlier work.
For data set [2], the system named is L. amazonensis promastigotes. The note with it: cited from earlier work.
Data set [3] deals with L. infantum promastigotes. Briefly: Antiproliferation assay: L. infantum promastigotes (72 h), MTT. It counts as cell-based, Leishmania infantum (MCAN/BR/2008/1112). To be noted: 72 h exposure; for IC50: Leishmania infantum, 72 h. As for the experimental part: (§1) Leishmania amazonensis promastigotes (IFLA/BR/1967/PH8) for the 24 h exposure test were cultivated in RPMI 1640, supplemented with 20% v/v heat inactivated fetal bovine serum (FBS) and incubated at 26°C until near the end of the log growth phase. Leishmania amazonensis (IFLA/BR/1967/PH8) and L. infantum (MCAN/BR/2008/1112) promastigotes used in the 72 h exposure test were cultivated in Warren’s medium (containing brain heart infusion- BHI plus hemin and folic acid), supplemented with 10% FBS, 0.1% of the antibiotics: 100 UI/mL penicillin G and 0.1 mg/mL streptomycin. Leishmania amazonensis (IFLA/BR/1967/PH8) transfected with the red fluorescent protein (RFP) gene was cultured in M199 medium (containing 0.1 mmol/L adenine, 40 mmol/L hepes, 0.0005% hemin and 0.0002% biotin), supplemented with 10% FBS, and 0.1% of the antibiotic. Parasites were maintained at 25°C in a BOD incubator.
(§2) Extracts and isolated compounds were tested against L. amazonensis promastigotes (IFLA/BR/1967/PH8 strain - 2x10^5 cells/well) and L. infantum promastigotes (MCAN/BR/2008/1112 strain - 3x10^5 cells/well). The samples were solubilized in DMSO (<1%), serially diluted (100 μg/mL to 1.56 μg/mL) and tested in a 96-well plate to obtain a dose-response curve. Miltefosine and DMSO were used as positive and negative controls, respectively. After 72 h, 10 μL of 3-(4,5-dimethylthiazol-2-yl)-2,5-diphenyl tetrazolium bromide (5 mg/mL—MTT, Sigma-Aldrich) solution was added to each well and the plate returned to the incubator for an additional 4 h. To halt the reaction, 100 μL acidified isopropanol was added to each well. Plates were read at 570 nm in a microplate reader (Multiskan MS, LabSystems Oy, Helsinki, Finland).

Another data set in a line: Cytotoxicity assay (MTT). It counts as cell-based, BALB/c mice. The note with it: female, BALB/c, mouse, 72 h exposure. The procedure: Female BALB/c mice pre-inoculated with 3% thioglycollate medium were used to obtain macrophages from the peritoneal cavity. Peritoneal exudate was collected 72 h post-inoculation using cold Hank´s Balanced Salt Solution and the assay performed as previously reported. Briefly, peritoneal macrophages in RPMI 1640 medium were transferred to a 96-well plate (2x10^5 cells/well) and incubated at 37°C in 5% CO2 for 24 h to allow adhesion. Samples were serially diluted (100 μg/mL to 0.78 μg/mL), added to the plate with the cells and incubated under the same conditions for 72 h. MTT (10 μL/well) was subsequently added and the plates re-incubated for a further 2 h. To halt the reaction, 100 μL of acidified isopropanol was added to each well. The plate was then read at 570 nm in a microplate reader (Multiskan MS, LabSystems Oy, Helsinki, Finland).

Data set [4] has as its system L. amazonensis amastigotes. Nature of the data set: L. amazonensis amastigotes assay (RFP parasites in peritoneal macrophages). To be noted: for IC50: Leishmania amazonensis, Peritoneal macrophage, intracellular; for IC50 / activity against L. amazonensis amastigotes (in words): 72 h. In kind it is cell-based, Leishmania amazonensis (IFLA/BR/1967/PH8). As for the experimental part: Peritoneal macrophages obtained from BALB/c mice were transferred to a 24-well plate (6x10^5 cells/well) in RPMI 1640 medium supplemented with 10% inactivated FBS and 20 mM L-glutamine, pH 7.2. The plate was incubated at 37°C in 5% CO2 for 24 h. After this period, macrophages were infected with L. amazonensis (IFLA/BR/1967/PH8) transfected with RFP in the stationary growth phase using a ratio 1:10 (macrophages/parasites) at 33°C for 4 h. The non-phagocytosed parasites were subsequently removed by extensive PBS wash, and samples added at non-toxic concentrations, in accordance with the cytotoxicity tests (100 μg/mL to 1.56 μg/mL) to determine the IC50 for the intracellular parasite. After 72 h, the supernatant was removed from the wells and 200 μL of deionized water added to each well to lyse the cell membrane. After lysis, the resulting supernatants were transferred to a black 96-well plate. The plate was read in a fluorescence spectrophotometer (FLx800, BioTek Instruments, Inc., Winooski, VT, USA) with 540/600 nm of excitation/emission. Wells containing macrophages infected with L. amazonensis (RFP) […] only were used as negative controls.

Data set [5] concerns L. amazonensis promastigotes. Nature of the data set: Neutral lipid quantification (Nile Red). It counts as cell-based, Leishmania amazonensis. The note with it: 24 h; 2 at 33.8 μM, 3 at 11.4 μM. The procedure:
After 24 h of exposure, the parasites (1x10^7 cells/well) were stained with 10 μg/mL Nile Red (Sigma-Aldrich, St. Louis, MO, USA) in the dark for 20 min at 25°C. Fluorescence intensity was analysed in a spectrofluorometer (BioTek Instruments, Inc., Winooski, VT, USA) using 485/528 nm excitation/emission.

Data set [6] concerns L. amazonensis promastigotes. Nature of the data set: Cell membrane integrity (propidium iodide). It counts as cell-based, Leishmania amazonensis. The note with it: 24 h; 2 at 33.8 μM, 3 at 11.4 μM. As for the experimental part:
Plates were incubated with propidium iodide (PI) (1.0 μg/mL—Sigma-Aldrich, USA, St. Louis, MO, USA) for 15 min in the dark at RT. Fluorescence was measured using a spectrofluorometer (FLx800, BioTek Instruments, Inc., Winooski, VT, USA) with 540/600 nm excitation/emission. Parasites heated at 65 °C were used as the positive control.

The test system of data set [7] is L. amazonensis promastigotes. Briefly: Reactive oxygen species (ROS) detection (H2DCFDA). In kind it is cell-based, Leishmania amazonensis. The procedure: Fluorescence intensity was detected using a fluorimetric microplate reader (FLx800, BioTek Instruments, Inc., Winooski, VT, USA), at 485/528 nm excitation/emission. Promastigotes incubated with miltefosine (44.2 μM) were used as a positive control.

The subject of data set [8] is L. amazonensis promastigotes. Nature of the data set: Antiproliferation assay: L. amazonensis promastigotes (72 h), MTT. It counts as cell-based, Leishmania amazonensis (IFLA/BR/1967/PH8). To be noted: 72 h exposure; for IC50: Leishmania amazonensis. As for the experimental part: as §1, §2
For data set [9], the system named is L. amazonensis promastigotes. Briefly: Mitochondrial membrane potential (MitoTracker). To be noted: 24 h; 2 at 33.8 μM, 3 at 11.4 μM; FCCP 5.0 μM for 10 min. It counts as cell-based, Leishmania amazonensis. The procedure:
After 24 h of incubation at 25°C, the parasite concentration was adjusted to 5x10^6 cells/mL and stained with 500 nM MitoTracker (Invitrogen, Eugene, OR, USA) in the dark for 40 min at 37°C. After washing twice with PBS, samples were transferred in triplicate to a black 96-well plate, and fluorescence measured in a spectrofluorometer (FLx800, BioTek Instruments, Inc., Winooski, VT, USA) at 540/600 nm excitation/emission. […] Louis, MO, USA) for 10 min were used to obtain maximal mitochondrial depolarization (positive control).

The test system of data set [10] is L. amazonensis promastigotes. Nature of the data set: Antiproliferation assay: L. amazonensis promastigotes (24 h), resazurin. It counts as cell-based, Leishmania amazonensis (IFLA/BR/1967/PH8). To be noted: Leishmania amazonensis, after 24 h, read-out: IC50 (CI95). The procedure:
as §1
Extracts and fractions were tested against L. amazonensis (IFLA/BR/1967/PH8) promastigote cells in a 96-well plate at a concentration of 10^6 cells/well. Each sample was solubilized in DMSO (<1%) since it was not soluble directly in the medium. Extracts were tested at 100 μg/mL and 50 μg/mL. […] Plates were read at 570 nm and 595 nm in a microplate reader (BiochromAsys UVM 340) after cell lysis with sodium dodecyl sulfate (SDS). Viability was calculated based on the equations described by Kulshrestha.

The next data set relates to L. infantum amastigotes. Nature of the data set: L. infantum amastigotes assay (Giemsa, infection index). It counts as cell-based, Leishmania infantum. The note with it: Leishmania infantum; intracellular, 72 h. As for the experimental part: Peritoneal macrophages (6 x 10^5 cells) were plated on round glass coverslips within 24-well plates in RPMI 1640 medium supplemented with FBS and 20 mM L-glutamine, pH 7.2, and incubated for 24 h at 37°C in 5% CO2. Stationary-phase promastigotes (6 x 10^6 cells, at a ratio of 10 parasites per macrophage) were then added to the wells, and cultures incubated for 24 h at 37°C in 5% CO2. Non-internalized parasites were removed by extensive PBS solution washing and infected macrophages subsequently treated with nontoxic concentrations of: compound 3 (6.25 μg/mL to 0.18 μg/mL) or miltefosine (10.0 μg/mL to 0.6 μg/mL, positive control) for 72 h at 37°C in 5% CO2. After compound exposure, cells were fixed with absolute ethanol and stained with Giemsa. A total of 200 macrophages were counted under a light microscope. The infection index was determined by the […] percentage of infected macrophages multiplied by the mean number of amastigotes per macrophage out of 200 macrophages.

With `CCC(C)C(=O)c1c(O)c(CC=C(C)C)c(O)c2c(-c3ccccc3)cc(=O)oc12` (centres unmarked) [mammea A/BB], the IC50 axenic amastigotes in data set [1] was 0.88 µg/mL (≈ 2.16 µM). Moreover, in [2], the IC50 promastigotes was 3 µg/mL (≈ 7.38 µM).

What is called IC50 is the concentration that gives 50% inhibition. A word on the CC50: it is the concentration at which the toxic effect on the cells reaches its halfway point. For `COc1ccc2c(c1)OC1c3ccc4c(c3OCC21)C=CC(C)(C)O4` (centres unmarked) [Compound 1, hemileiocarpin], the 50% inhibitory concentration (IC50) is 20.8 µg/mL and 61.9 µM in data set [3]; 10.6 µg/mL and 31.6 µM in [4]. Further, the 50% cytotoxic concentration (CC50) at 72 h in the data set “Cytotoxicity assay (MTT)” (murine peritoneal macrophages) was > 100 µg/mL and > 297 µM.

Turning to `CC1(C)C=Cc2c(ccc3c2OCC2c4cc5c(cc4OC32)OCO5)O1` (centres unmarked) [Compound 2, leiocarpin], the IC50 is 15.5 µg/mL and 44.3 µM in data set [3]; 11.4 µg/mL and 33.8 µM in data set [8]; 7.1 µg/mL and 20.4 µM in data set [4]. For the same molecule, in [5], the “increase in neutral lipid levels in relation to the untreated control” value came to 86.9%. For the same molecule, the “plasma membrane integrity (PI-positive parasites)” value in [6] is “significant increase in the percentage of PI-positive parasites”. In “Cytotoxicity assay (MTT)” (murine peritoneal macrophages), the CC50 at 72 h was 39 µg/mL and 116 µM. The ROS level result in [7] (24 h, 2 at 33.8 μM, 3 at 11.4 μM) is “no alteration in the ROS level”. Further, the “SI (Selectivity Index)” value in [4] (CC50 macrophages / IC50 L. amazonensis amastigotes) worked out at 5.7. Moreover, the “reduction in mitochondrial membrane potential (ΔΨm)” value in data set [9] is 37.6%.

As for `CCCCCCCCCCCCCC1=C(O)C(=O)C=C(O)C1=O` [Compound 4, rapanone], in data set [3], the “Promastigotes IC50 L. infantum” value was found to be 7.17 ± 0.3 µg/mL; the half-maximal inhibitory concentration (IC50) was 7.2 µg/mL and 24.5 µM. Moreover, in the data set “Cytotoxicity assay (MTT)” (murine peritoneal macrophages), the CC50 at 72 h is 2.9 µg/mL and 9.8 µM. For the same molecule, in [8], the “activity against L. amazonensis promastigotes (in words)” value is listed as “inactivity”; the 50% inhibitory concentration (IC50) was 50.4 µg/mL and 169 µM. Moreover, in data set [4], the “activity against L. amazonensis amastigotes (in words)” value was “inactive”; the IC50 is > 3.2 µg/mL and > 10.6 µM.

With `C[C@@H]1[C@H](O)[C@@H](C)/C=C/C=C/C=C/C=C/C=C/C=C/C=C/[C@H](O[C@@H]2O[C@H](C)[C@@H](O)[C@H](N)[C@@H]2O)C[C@@H]2O[C@](O)(C[C@@H](O)C[C@@H](O)[C@H](O)CC[C@@H](O)C[C@@H](O)CC(=O)O[C@H]1C)C[C@H](O)[C@H]2C(=O)O` [Amphotericin B, reference compound], the IC50 in [10] was < 7.8 µg/mL.

Take `CCCCCCCCCCCCCCCCOP(=O)([O-])OCC[N+](C)(C)C` [Miltefosine, reference compound]: the IC50 in data set [3] was 2.6 µg/mL and 6.5 µM; in the data set on L. infantum amastigotes it was 3.7 µM; in data set [8] it was 9 µg/mL and 22.1 µM; in [4] it was 5.2 µg/mL and 12.7 µM. In addition, the “increase in ROS production” value in data set [7] (miltefosine 44.2 μM, positive control) was determined as 162.3%. Besides, in data set [4], the “SI (Selectivity Index)” value came to 10.4.

On to `CCCCCCCCCCCCCCCC1=C(O)C(=O)C=C(O)C1=O` [Compound 6, suberonone], for which, in data set [3], the “activity against L. infantum promastigotes (in words)” value is “not considered active”; the IC50 is 37.2 µg/mL and 106 µM. Also, the CC50 at 72 h in the data set “Cytotoxicity assay (MTT)” (murine peritoneal macrophages) was 4.2 µg/mL and 11.7 µM. Also, in data set [8], the “activity against L. amazonensis promastigotes (in words)” value was “not considered active”; the IC50 is 51.9 µg/mL and 149 µM. In addition, in data set [4], the “activity against L. amazonensis amastigotes (in words)” value was “inactive”; the IC50 is > 3.2 µg/mL and > 8.9 µM.

`CCCCCCCCCCCC1=C(O)C(=O)C=C(O)C1=O` [Compound 5, embelin]: the IC50 in data set [3] was 10.7 µg/mL and 33.2 µM; in data set [8], 12.5 µg/mL and 38.9 µM; in data set [4], > 3.2 µg/mL and > 9.7 µM. Besides, in the data set “Cytotoxicity assay (MTT)” (read-out: Cytotoxicity CC50 Murine macrophages), the CC50 at 72 h was 0.9 µg/mL and 2.6 µM. Also, the “activity against L. amazonensis amastigotes (in words)” value in [4] is “inactive”.

On to `N#CC(C#N)=NNc1ccc(OC(F)(F)F)cc1` [FCCP, carbonyl cyanide 4-(trifluoro-methoxyl)phenylhydrazone, reference compound], for which the “reduction in mitochondrial membrane potential (ΔΨm)” value in data set [9] was 51.6%.
